According to PubChem BioAssay (NCI):
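A five-concentration, 48-hour dose response in 96-well plates underlies each endpoint, interpolated linearly between surrounding concentrations. TGI is the concentration that stops growth completely.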

What was measured:
Test in all cases: DTP human tumour cell line panel, 48 h
[1] = test system: HCT-15 colon
[2] = test system: EKVX NSCLC
[3] = test system: HCT-116 colon
[4] = test system: U251 CNS
[5] = test system: SNB-19 CNS
[6] = test system: SR leukemia
[7] = test system: PC-3 prostate
[8] = test system: OVCAR-5 ovarian
[9] = test system: HT29 colon
[10] = test system: KM12 colon
[11] = test system: SN12C renal
[12] = test system: SK-OV-3 ovarian
[13] = test system: UO-31 renal
[14] = test system: ACHN renal
[15] = test system: T-47D breast
[16] = test system: SNB-75 CNS
[17] = test system: NCI-H23 lung
[18] = test system: UACC-62 melanoma
[19] = test system: HL-60(TB) leukemia
[20] = test system: HCC-2998 colon
[21] = test system: LOX IMVI melanoma
[22] = test system: OVCAR-3 ovarian
[23] = test system: NCI-H522 lung
[24] = test system: M14 melanoma
[25] = test system: CCRF-CEM leukemia
[26] = test system: RPMI-8226 leukemia
[27] = test system: NCI-H460 lung
[28] = test system: CAKI-1 renal
[29] = test system: SF-539 CNS
[30] = test system: HS 578T breast
[31] = test system: MDA-MB-231 breast
[32] = test system: HOP-92 NSCLC
[33] = test system: 786-0 renal
[34] = test system: OVCAR-8 ovarian
[35] = test system: MALME-3M melanoma
[36] = test system: IGROV1 ovarian
[37] = test system: COLO 205 colon
[38] = test system: SF-268 CNS
[39] = test system: SW-620 colon
[40] = test system: SK-MEL-2 melanoma
[41] = test system: NCI/ADR-RES ovarian
[42] = test system: TK-10 renal
[43] = test system: DU-145 prostate
[44] = test system: BT-549 breast
[45] = test system: MDA-N
[46] = test system: A549 NSCLC
[47] = test system: HOP-62 NSCLC
[48] = test system: MCF7 breast
[49] = test system: K-562 leukemia
[50] = test system: SK-MEL-28 melanoma
[51] = test system: A498 renal
[52] = test system: SF-295 CNS
[53] = test system: OVCAR-4 ovarian
[54] = test system: MDA-MB-435
[55] = test system: RXF 393 renal
[56] = test system: NCI-H226 lung
[57] = test system: UACC-257 melanoma
[58] = test system: MOLT-4 leukemia
[59] = test system: SK-MEL-5 melanoma

CC(C)=CCC/C(C)=C/CC/C(C)=C/CCN(C)CCO
TGI [1]: 13.7 µM
TGI [2]: 32.3 µM
TGI [3]: 16.3 µM
TGI [4]: 12.7 µM
TGI [5]: 22.8 µM
TGI [6]: 21.4 µM
TGI [7]: 18.2 µM
TGI [8]: 21.1 µM
TGI [9]: 23.3 µM
TGI [10]: 7.77 µM
TGI [11]: 25.5 µM
TGI [12]: 29.6 µM
TGI [13]: 25.3 µM
TGI [14]: 23.9 µM
TGI [15]: 7.4 µM
TGI [16]: 21 µM
TGI [17]: 27.6 µM
TGI [18]: 27.1 µM
TGI [19]: 3.68 µM
TGI [20]: 4.38 µM
TGI [21]: 14.3 µM
TGI [22]: 28.9 µM
TGI [23]: 16.5 µM
TGI [24]: 3.81 µM
TGI [25]: 8.65 µM
TGI [26]: 11 µM
TGI [27]: 14.5 µM
TGI [28]: 19.2 µM
TGI [29]: 14.8 µM
TGI [30]: 6.57 µM
TGI [31]: 23.9 µM
TGI [32]: 9.9 µM
TGI [33]: 4.83 µM
TGI [34]: 27.3 µM
TGI [35]: 8.33 µM
TGI [36]: 8.34 µM
TGI [37]: 3.25 µM
TGI [38]: 27 µM
TGI [39]: 18.4 µM
TGI [40]: 28.1 µM
TGI [41]: 26.7 µM
TGI [42]: 19.4 µM
TGI [43]: 25.9 µM
TGI [44]: 26.3 µM
TGI [45]: 14.3 µM
TGI [46]: 23.3 µM
TGI [47]: 19.6 µM
TGI [48]: 7.13 µM
TGI [49]: 3.24 µM
TGI [50]: 25.1 µM
TGI [51]: 29.3 µM
TGI [52]: 12.1 µM
TGI [53]: 29.1 µM
TGI [54]: 17.4 µM
TGI [55]: 24.9 µM
TGI [56]: 38.7 µM
TGI [57]: 21.7 µM
TGI [58]: 11.1 µM
TGI [59]: 3.44 µM
